Laboratory results: PMC10482274, “Probing the substrate binding modes and catalytic mechanisms of BLEG-1, a promiscuous B3 metallo-β-lactamase with glyoxalase II properties” (PLOS ONE, 2023)

Target: T1, BLEG-1 (B3 metallo-β-lactamase) (Shouchella lehensis, UniProt A0A060M4R1)
T1 construct: gene BleG1_2478; wild-type recombinant BLEG-1 (26 kDa), purified by Ni-NTA
Test: circular dichroism titration ([…] nm, non-linear regression); hydrolysis assay at […] nm with the purified enzyme
Type: binding

T1 sequence (A0A060M4R1 entry or part of it): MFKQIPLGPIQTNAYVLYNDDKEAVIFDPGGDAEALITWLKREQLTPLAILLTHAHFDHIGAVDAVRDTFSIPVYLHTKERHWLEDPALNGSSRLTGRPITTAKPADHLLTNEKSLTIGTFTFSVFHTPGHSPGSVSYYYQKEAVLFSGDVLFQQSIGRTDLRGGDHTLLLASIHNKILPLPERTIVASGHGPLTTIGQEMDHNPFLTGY

`CC1(C)S[C@@H]2[C@H](NC(=O)[C@H](N)c3ccccc3)C(=O)N2[C@H]1C(=O)O` [ampicillin] gave a Kd of 1510 nM.
